{
  "source": "paper PMC5218480",
  "about": "(PLoS ONE, 2017)",
  "system": "MV-4-11 cells",
  "test": "Gene expression microarray analysis (Affymetrix PrimeView) and GSEA",
  "format": "cell-based, human",
  "design": "RFU PODN (11730768_x_at) / Fold change /veh PODN (11730768_x_at) / RFU LINC00158 (11744669_a_at) / Fold change /veh LINC00158 (11744669_a_at) / RFU DUSP10 (11751237_a_at) / Fold change /veh DUSP10 (11751237_a_at) / RFU ID3 (11757404_x_at) / Fold change /veh ID3 (11757404_x_at) / RFU PLEKHG5 (11737974_s_at) / Fold change /veh PLEKHG5 (11737974_s_at) / RFU LRRC4B (11730491_at) / Fold change /veh LRRC4B (11730491_at) / RFU GIMAP4 (11747438_a_at) / Fold change /veh GIMAP4 (11747438_a_at) / RFU KRT8 (11758183_x_at) / Fold change /veh KRT8 (11758183_x_at) / RFU CNN1 (11734310_a_at) / Fold change /veh CNN1 (11734310_a_at) / RFU VPS37D (11726825_at) / Fold change /veh VPS37D (11726825_at) / RFU C10orf10 (11716522_x_at) / Fold change /veh C10orf10 (11716522_x_at) / RFU KIR2DL2 /// KIR2DL4 /// KIR2DL5A /// KIR2DL5B /// KIR2DS1 /// KIR2DS2 /// KIR2DS3 /// KIR2DS4 /// KIR3DL3 /// KIR3DL3 /// KIR3DS1 (11738374_at) / Fold change /veh KIR2DL2 /// KIR2DL4 /// KIR2DL5A /// KIR2DL5B /// KIR2DS1 /// KIR2DS2 /// KIR2DS3 /// KIR2DS4 /// KIR3DL3 /// KIR3DL3 /// KIR3DS1 (11738374_at) / RFU C1QL1 (11718748_at) / Fold change /veh C1QL1 (11718748_at) / RFU TMPRSS4 (11747572_a_at) / Fold change /veh TMPRSS4 (11747572_a_at) / RFU HAMP (11756126_x_at) / Fold change /veh HAMP (11756126_x_at) / RFU RNFT2 (11725882_a_at) / Fold change /veh RNFT2 (11725882_a_at) / RFU NR4A2 (11747474_a_at) / Fold change /veh NR4A2 (11747474_a_at) / RFU ABCC12 (11746883_a_at) / Fold change /veh ABCC12 (11746883_a_at) / RFU TMEM136 (11760407_x_at) / Fold change /veh TMEM136 (11760407_x_at) / RFU CLDN22 /// WWC2 (11732394_at) / Fold change /veh CLDN22 /// WWC2 (11732394_at) / RFU HLA-DPB1 (11760878_x_at) / Fold change /veh HLA-DPB1 (11760878_x_at) / RFU SPINT1 (11716480_a_at) / Fold change /veh SPINT1 (11716480_a_at) / RFU GAP43 (11754022_s_at) / Fold change /veh GAP43 (11754022_s_at) / RFU A4GNT (11735810_at) / Fold change /veh A4GNT (11735810_at) / RFU PRB3 (11715151_x_at) / Fold change /veh PRB3 (11715151_x_at) / RFU TUBB4B (11761932_at) / Fold change /veh TUBB4B (11761932_at) / RFU CAPN14 (11732068_a_at) / Fold change /veh CAPN14 (11732068_a_at) / RFU TMCC2 (11721928_a_at) / Fold change /veh TMCC2 (11721928_a_at) / RFU IRGQ (11745062_a_at) / Fold change /veh IRGQ (11745062_a_at) / RFU FAM174B (11720279_a_at) / Fold change /veh FAM174B (11720279_a_at) / RFU TMPRSS4 (11748680_a_at) / Fold change /veh TMPRSS4 (11748680_a_at) / RFU FAM212B (11763350_a_at) / Fold change /veh FAM212B (11763350_a_at) / RFU PLEKHG5 (11743358_a_at) / Fold change /veh PLEKHG5 (11743358_a_at) / RFU ZSCAN30 (11745921_a_at) / Fold change /veh ZSCAN30 (11745921_a_at) / RFU CMKLR1 (11741424_a_at) / Fold change /veh CMKLR1 (11741424_a_at) / RFU LOC101060620 /// MAPK8IP1 (11723275_at) / Fold change /veh LOC101060620 /// MAPK8IP1 (11723275_at) / RFU SPTSSB (11747773_x_at) / Fold change /veh SPTSSB (11747773_x_at) / RFU PRSS12 (11739890_at) / Fold change /veh PRSS12 (11739890_at) / RFU BIN1 (11741810_x_at) / Fold change /veh BIN1 (11741810_x_at) / RFU WNT11 (11732464_a_at) / Fold change /veh WNT11 (11732464_a_at) / RFU C10orf10 (11716521_a_at) / Fold change /veh C10orf10 (11716521_a_at) / RFU C5orf56 (11738089_at) / Fold change /veh C5orf56 (11738089_at) / RFU CYB561 (11721691_x_at) / Fold change /veh CYB561 (11721691_x_at) / RFU ANKRD19P (11752326_a_at) / Fold change /veh ANKRD19P (11752326_a_at) / RFU OR2T12 /// OR2T33 /// OR2T8 (11738714_s_at) / Fold change /veh OR2T12 /// OR2T33 /// OR2T8 (11738714_s_at) / RFU VCAN (11748164_a_at) / Fold change /veh VCAN (11748164_a_at) / RFU JSRP1 (11732532_at) / Fold change /veh JSRP1 (11732532_at) / RFU KRTAP10-11 (11738290_x_at) / Fold change /veh KRTAP10-11 (11738290_x_at) / RFU MYO3A (11730013_a_at) / Fold change /veh MYO3A (11730013_a_at) / RFU EBF3 (11725865_a_at) / Fold change /veh EBF3 (11725865_a_at) / RFU CAMK2N1 (11719241_x_at) / Fold change /veh CAMK2N1 (11719241_x_at) / RFU C5orf56 (11738088_a_at) / Fold change /veh C5orf56 (11738088_a_at) / RFU OLFML3 (11715873_a_at) / Fold change /veh OLFML3 (11715873_a_at) / RFU LOC100653217 /// NTM (11731650_a_at) / Fold change /veh LOC100653217 /// NTM (11731650_a_at) / RFU MAPK11 (11762145_a_at) / Fold change /veh MAPK11 (11762145_a_at) / RFU FIZ1 (11724087_x_at) / Fold change /veh FIZ1 (11724087_x_at) / RFU OASL (11726364_x_at) / Fold change /veh OASL (11726364_x_at) / RFU SOX15 (11748057_x_at) / Fold change /veh SOX15 (11748057_x_at) / RFU CD79A (11719716_a_at) / Fold change /veh CD79A (11719716_a_at) / RFU HIST1H1D (11736915_at) / Fold change /veh HIST1H1D (11736915_at) / RFU CASKIN2 (11723855_a_at) / Fold change /veh CASKIN2 (11723855_a_at) / RFU LOC730098 (11760151_x_at) / Fold change /veh LOC730098 (11760151_x_at) / RFU OR4N2 (11742367_at) / Fold change /veh OR4N2 (11742367_at) / RFU PRRT2 (11749266_a_at) / Fold change /veh PRRT2 (11749266_a_at) / RFU SNX32 (11753110_a_at) / Fold change /veh SNX32 (11753110_a_at) / RFU CDHR5 (11726645_a_at) / Fold change /veh CDHR5 (11726645_a_at) / RFU RCAN1 (11760418_a_at) / Fold change /veh RCAN1 (11760418_a_at) / RFU FAM167A (11723789_a_at) / Fold change /veh FAM167A (11723789_a_at) / RFU FAM26E (11764081_at) / Fold change /veh FAM26E (11764081_at) / RFU ISYNA1 (11749810_s_at) / Fold change /veh ISYNA1 (11749810_s_at) / RFU ACY1 (11761880_at) / Fold change /veh ACY1 (11761880_at) / RFU 11764098_at / Fold change /veh 11764098_at / RFU SAMD14 (11745864_x_at) / Fold change /veh SAMD14 (11745864_x_at) / RFU NPB (11741838_a_at) / Fold change /veh NPB (11741838_a_at) / RFU TMPRSS6 (11731388_a_at) / Fold change /veh TMPRSS6 (11731388_a_at) / RFU KRTAP10-2 (11738614_at) / Fold change /veh KRTAP10-2 (11738614_at) / RFU ARHGAP8 /// PRR5-ARHGAP8 (11727945_x_at) / Fold change /veh ARHGAP8 /// PRR5-ARHGAP8 (11727945_x_at) / RFU KRTAP5-7 /// NADSYN1 (11734609_at) / Fold change /veh KRTAP5-7 /// NADSYN1 (11734609_at) / RFU RASL12 (11751679_a_at) / Fold change /veh RASL12 (11751679_a_at) / RFU CDKN2B (11736163_a_at) / Fold change /veh CDKN2B (11736163_a_at) / RFU PRF1 (11729649_at) / Fold change /veh PRF1 (11729649_at) / RFU, ZNF638 /// ZNF638-IT1 / Fold change vs veh, ZNF638 /// ZNF638-IT1 / RFU, PANK3 / Fold change vs veh, PANK3 / RFU, SH3YL1 / Fold change vs veh, SH3YL1 / RFU, ZEB2 / Fold change vs veh, ZEB2 / RFU, NRIP1 / Fold change vs veh, NRIP1 / RFU, PTTG1IP / Fold change vs veh, PTTG1IP / RFU, CAPN2 / Fold change vs veh, CAPN2 / RFU, MED14 / Fold change vs veh, MED14 / RFU, SNORA58 / Fold change vs veh, SNORA58 / RFU, C1orf63 / Fold change vs veh, C1orf63 / RFU, LRRFIP1 / Fold change vs veh, LRRFIP1 / RFU, NDUFAF7 / Fold change vs veh, NDUFAF7 / RFU, SLC12A2 / Fold change vs veh, SLC12A2 / RFU, IBTK / Fold change vs veh, IBTK / RFU, ESF1 / Fold change vs veh, ESF1 / Fold change vs veh, TMEM50B / RFU, TAOK1 / Fold change vs veh, TAOK1 / RFU, ACBD3 / Fold change vs veh, ACBD3 / RFU, TMA16 / Fold change vs veh, TMA16 / RFU, RWDD3 / Fold change vs veh, RWDD3 / RFU, BCAT1 / Fold change vs veh, BCAT1 / RFU, EDEM3 / Fold change vs veh, EDEM3 / RFU, TMEM33 / Fold change vs veh, TMEM33 / RFU, WDR75 / Fold change vs veh, WDR75 / RFU, AHCTF1 / Fold change vs veh, AHCTF1 / RFU, TFRC / Fold change vs veh, TFRC / RFU, ZDHHC17 / Fold change vs veh, ZDHHC17 / RFU, NOM1 / Fold change vs veh, NOM1 / RFU, ARL8B / Fold change vs veh, ARL8B / RFU, ZBTB11 / Fold change vs veh, ZBTB11 / RFU, TAMM41 / Fold change vs veh, TAMM41 / RFU, KIAA1704 /// LOC100996395 / Fold change vs veh, KIAA1704 /// LOC100996395 / RFU, ING1 / Fold change vs veh, ING1 / RFU, TRMT61B / Fold change vs veh, TRMT61B / RFU, FUBP3 / Fold change vs veh, FUBP3 / RFU, TP53 / Fold change vs veh, TP53 / RFU, TNKS2 / Fold change vs veh, TNKS2 / RFU, ZFP14 / Fold change vs veh, ZFP14 / RFU, ACTR2 / Fold change vs veh, ACTR2 / RFU, PPP3R1 / Fold change vs veh, PPP3R1 / RFU, PIK3R1 / Fold change vs veh, PIK3R1 / RFU, HNRNPA1 / Fold change vs veh, HNRNPA1 / RFU, RNF170 / Fold change vs veh, RNF170 / RFU, ZNF28 / Fold change vs veh, ZNF28 / RFU, RNGTT / Fold change vs veh, RNGTT / RFU, OGT / Fold change vs veh, OGT / RFU, BRD1 / Fold change vs veh, BRD1 / RFU, MARS / Fold change vs veh, MARS / RFU, ZNF655 / Fold change vs veh, ZNF655 / RFU, FAHD1 / Fold change vs veh, FAHD1 / RFU, BDP1 / Fold change vs veh, BDP1 / RFU, LRRCC1 / Fold change vs veh, LRRCC1 / RFU, ARID1A / Fold change vs veh, ARID1A / RFU, ZNF146 / Fold change vs veh, ZNF146 / RFU, ZNF330 / Fold change vs veh, ZNF330 / RFU, GPN3 / Fold change vs veh, GPN3 / RFU, C9orf123 / Fold change vs veh, C9orf123 / RFU, N4BP2L2 / Fold change vs veh, N4BP2L2 / RFU, ARFIP1 / Fold change vs veh, ARFIP1 / RFU, FAM179B / Fold change vs veh, FAM179B / RFU, BCL10 / Fold change vs veh, BCL10 / RFU, UHRF1BP1L / Fold change vs veh, UHRF1BP1L / RFU, BET1 / Fold change vs veh, BET1 / RFU, CNOT2 / Fold change vs veh, CNOT2 / RFU, ZNF268 / Fold change vs veh, ZNF268 / Fold change vs veh, ZNF507 / RFU, DGCR2 / Fold change vs veh, DGCR2 / RFU, WDSUB1 / Fold change vs veh, WDSUB1 / Fold change vs veh, HSP90B1 /// MIR3652 / RFU, ADSS / Fold change vs veh, ADSS / RFU, GK / Fold change vs veh, GK / RFU, ZNF148 / Fold change vs veh, ZNF148 / RFU, TAF9 / Fold change vs veh, TAF9 / RFU, SLC1A5 / Fold change vs veh, SLC1A5 / RFU, SLMO2 / Fold change vs veh, SLMO2 / RFU, ABCC4 / Fold change vs veh, ABCC4 / RFU, LOC101060439 /// RAP1B / Fold change vs veh, LOC101060439 /// RAP1B / RFU, RFX7 / Fold change vs veh, RFX7 / RFU, GTPBP10 / Fold change vs veh, GTPBP10 / RFU, CNEP1R1 / Fold change vs veh, CNEP1R1 / RFU, BIVM-ERCC5 /// ERCC5 / Fold change vs veh, BIVM-ERCC5 /// ERCC5 / RFU, ILF3 / Fold change vs veh, ILF3 / RFU 11762660_at / Fold change /veh 11762660_at / RFU VCAN (11757783_s_at) / Fold change /veh VCAN (11757783_s_at) / RFU DDX43 (11728927_at) / Fold change /veh DDX43 (11728927_at) / RFU KRT8 (11758188_x_at) / Fold change /veh KRT8 (11758188_x_at) / RFU NKD1 (11759106_at) / Fold change /veh NKD1 (11759106_at) / RFU SRD5A1 (11742802_a_at) / Fold change /veh SRD5A1 (11742802_a_at) / RFU TPSAB1 /// TPSB2 (11721975_s_at) / Fold change /veh TPSAB1 /// TPSB2 (11721975_s_at) / RFU GSTM3 (11746129_a_at) / Fold change /veh GSTM3 (11746129_a_at) / RFU IL23R (11737362_x_at) / Fold change /veh IL23R (11737362_x_at) / RFU TMEM51 (11727254_a_at) / Fold change /veh TMEM51 (11727254_a_at) / RFU PIWIL2 (11732686_x_at) / Fold change /veh PIWIL2 (11732686_x_at) / RFU ORM1 (11744905_x_at) / Fold change /veh ORM1 (11744905_x_at) / RFU CCDC152 (11743942_at) / Fold change /veh CCDC152 (11743942_at) / RFU ECM1 (11717891_a_at) / Fold change /veh ECM1 (11717891_a_at) / RFU IL23R (11748794_a_at) / Fold change /veh IL23R (11748794_a_at) / RFU TNFAIP8L3 (11732012_x_at) / Fold change /veh TNFAIP8L3 (11732012_x_at) / RFU MBOAT4 (11741988_at) / Fold change /veh MBOAT4 (11741988_at) / RFU 11764193_at / Fold change /veh 11764193_at / RFU TMEM53 (11763286_at) / Fold change /veh TMEM53 (11763286_at) / RFU MAGEB2 (11727129_at) / Fold change /veh MAGEB2 (11727129_at) / RFU TMEM200A (11744735_a_at) / Fold change /veh TMEM200A (11744735_a_at) / RFU CCDC152 (11751479_a_at) / Fold change /veh CCDC152 (11751479_a_at) / RFU FAM211A (11726209_a_at) / Fold change /veh FAM211A (11726209_a_at) / RFU RGS16 (11746705_a_at) / Fold change /veh RGS16 (11746705_a_at) / RFU VCAN (11755009_s_at) / Fold change /veh VCAN (11755009_s_at) / RFU RHOB (11743442_s_at) / Fold change /veh RHOB (11743442_s_at) / RFU RGS16 (11720943_a_at) / Fold change /veh RGS16 (11720943_a_at) / RFU RGS16 (11720944_at) / Fold change /veh RGS16 (11720944_at) / RFU, VPS4B / Fold change vs veh, VPS4B / RFU, CREB1 / Fold change vs veh, CREB1 / RFU, DNAJC13 / Fold change vs veh, DNAJC13 / RFU, GNAQ / Fold change vs veh, GNAQ / RFU, CDK5R1 / Fold change vs veh, CDK5R1 / RFU, ZRANB3 / Fold change vs veh, ZRANB3 / RFU, CUL4A / Fold change vs veh, CUL4A / RFU, CCNY / Fold change vs veh, CCNY / RFU, UFL1 / Fold change vs veh, UFL1 / RFU, COG3 / Fold change vs veh, COG3 / RFU, DIAPH2 / Fold change vs veh, DIAPH2 / RFU, SKA2 / Fold change vs veh, SKA2 / RFU, AFF3 / Fold change vs veh, AFF3 / RFU, LMF1 / Fold change vs veh, LMF1 / RFU, IPO11 / Fold change vs veh, IPO11 / RFU, DFFB / Fold change vs veh, DFFB / RFU, FOXP1 / Fold change vs veh, FOXP1 / RFU, CARD8 / Fold change vs veh, CARD8 / RFU, STRN3 / Fold change vs veh, STRN3 / RFU, ADK / Fold change vs veh, ADK / RFU, RASSF2 / Fold change vs veh, RASSF2 / RFU, WIPF1 / Fold change vs veh, WIPF1 / RFU, LARP1B / Fold change vs veh, LARP1B / RFU, RASA1 / Fold change vs veh, RASA1 / RFU, RB1 / Fold change vs veh, RB1 / RFU, PPFIA1 / Fold change vs veh, PPFIA1 / RFU, MAT2A / Fold change vs veh, MAT2A / RFU, CCT5 / Fold change vs veh, CCT5 / RFU, WDR92 / Fold change vs veh, WDR92 / RFU, CUX1 / Fold change vs veh, CUX1 / RFU, TTC7A / Fold change vs veh, TTC7A / RFU, TMEM135 / Fold change vs veh, TMEM135 / RFU, DEPTOR / Fold change vs veh, DEPTOR / RFU, CPM / Fold change vs veh, CPM / RFU, DNAJB6 / Fold change vs veh, DNAJB6 / RFU, CACNA2D3 / Fold change vs veh, CACNA2D3 / RFU, DTX4 / Fold change vs veh, DTX4 / RFU, TFCP2 / Fold change vs veh, TFCP2 / RFU, GMCL1 /// GMCL1P1 / Fold change vs veh, GMCL1 /// GMCL1P1 / RFU, AEBP2 / Fold change vs veh, AEBP2 / RFU, SNHG1 /// SNORD22 /// SNORD25 /// SNORD26 /// SNORD27 /// SNORD28 /// SNORD29 /// SNORD31 / Fold change vs veh, SNHG1 /// SNORD22 /// SNORD25 /// SNORD26 /// SNORD27 /// SNORD28 /// SNORD29 /// SNORD31 / Fold change (Aza/veh), C12orf56 (ProbeSet 11735607_a_at) / Fold change (ACY-1035/veh), C12orf56 (ProbeSet 11735607_a_at) / Fold change (Aza/veh), FGFR1OP (ProbeSet 11751329_s_at) / Fold change (ACY-1035/veh), FGFR1OP (ProbeSet 11751329_s_at) / Fold change (Aza/veh), VPS36 (ProbeSet 11739960_a_at) / Fold change (ACY-1035/veh), VPS36 (ProbeSet 11739960_a_at) / RFU SYPL1 (11715823_x_at) / Fold change /veh SYPL1 (11715823_x_at) / RFU IGFBP7 (11715501_s_at) / Fold change /veh IGFBP7 (11715501_s_at) / RFU REEP3 (11722064_at) / Fold change /veh REEP3 (11722064_at) / RFU IGLL1 (11728026_x_at) / Fold change /veh IGLL1 (11728026_x_at): dose or concentration left out as unconfirmed",
  "settings": "ProbeSet 11749645_x_at; LIST B",
  "data": [
    {"smiles": "Nc1ccc(-c2cccs2)cc1NC(=O)c1ccc2c(c1)cc(C1CC1)n2CCN1CCOCC1", "note": "[ACY-1035]", "values": [
      {"measurement": "Fold change vs veh, ZNF268", "result": 0.87}
    ]}
  ]
}
